Assay results as given in ChEMBL document CHEMBL3853264 (Medchemcomm, 2016).

Experiments:
[1] = target: T1, Solute carrier family 22 member 12 (Homo sapiens, UniProt Q96S37); assay: Inhibition of human C-terminal eGFP-tagged URAT1 long isoform expressed in CHO cells assessed as decrease in [14C]-uric acid uptake preincubated for 15 mins followed by [14C]-uric acid addition and incubated in dark for 3 hrs by scintillation counting method; format: cell-based
T1 sequence (Q96S37 whole entry): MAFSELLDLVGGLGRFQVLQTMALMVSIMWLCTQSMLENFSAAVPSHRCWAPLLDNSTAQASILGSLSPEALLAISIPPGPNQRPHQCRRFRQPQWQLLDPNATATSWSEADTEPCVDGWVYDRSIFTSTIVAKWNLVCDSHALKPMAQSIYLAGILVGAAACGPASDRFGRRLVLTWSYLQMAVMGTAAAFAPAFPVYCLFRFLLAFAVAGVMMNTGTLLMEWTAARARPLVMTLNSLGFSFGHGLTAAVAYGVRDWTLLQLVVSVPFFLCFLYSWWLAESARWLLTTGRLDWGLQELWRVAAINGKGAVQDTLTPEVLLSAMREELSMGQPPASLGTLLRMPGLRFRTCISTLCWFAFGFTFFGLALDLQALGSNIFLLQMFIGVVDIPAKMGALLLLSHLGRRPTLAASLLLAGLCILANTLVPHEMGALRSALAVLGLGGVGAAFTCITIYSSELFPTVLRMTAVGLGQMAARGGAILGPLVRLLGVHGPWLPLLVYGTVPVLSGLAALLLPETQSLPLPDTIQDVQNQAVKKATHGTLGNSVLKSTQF

[2] = Intrinsic clearance in human liver microsomes; format: ADME; details: read-out: CLH
[3] = Octanol-water partition co-efficient, log D of the compound by shake flask method; format: physicochemical
[4] = target: T1, Solute carrier family 22 member 12; assay: Inhibition of URAT1 (unknown origin)

IC50 [1] [nM]	microsomal CLint [2] [µL/min/mg]	logD [3]	IC50 [4] [nM]	SMILES
115	–	–	–	N#Cc1ccc(Oc2ccc(S(=O)(=O)Nc3ccccn3)cc2C#N)cc1Cl
1820	–	–	–	N#Cc1ccc(Oc2ccc(S(=O)(=O)Nc3ncccn3)cc2C#N)cc1Cl

The next lines start with the compound.

SMILES	IC50 [1] [nM]	microsomal CLint [2] [µL/min/mg]	logD [3]	IC50 [4] [nM]
N#Cc1cc(Oc2ccc(S(=O)(=O)Nc3ccc(F)cn3)cc2C#N)ccc1Cl	–	134	2	–
CC(C)(Sc1ccncc1-c1ccc(C#N)c2ccccc12)C(=O)O	–	–	–	23
N#Cc1cc(S(=O)(=O)Nc2ccc(F)cn2)ccc1Oc1ccc(F)c(Cl)c1	–	163	2.3	–
